According to US20160324885A1, “COMPOSITION CONTAINING MODIFIED DERIVATIVES OF A CYTIDINE ANTIMETABOLITE FOR THE TREATMENT OF SUSCEPTIBLE DISEASE” (ASTERIAPHARMA GMBH, priority 2013, published 2016):

Assays:
[1] = test system: HeLa cells; experiment: WST-1 cell proliferation assay, HeLa cells; assay type: cell-based, human; parameters: dose or concentration left out as unconfirmed; details: 5 days after start of treatment, WST-1, relative to untreated cells
Protocol: FIG. 1. Inhibition of proliferation of human cancer cells treated with either dFdC or homo-oligomers and hetero-oligomers containing dFdC. HeLa cells growing on 96-well plates (5000 cells/well) were treated with: 1) TpF; 2) FpF; 3) TpFpF; 4) FpFpF; 5) dFdC. The concentration of drug in the culture medium […]. Cell proliferation was measured 5 days after treatment was started using the WST-1 assay. The mean value obtained with untreated cells was set at 1.
Methods: Cervical cancer cell lines (HeLa, SiHa, CaSki and C-33) were cultured at 37° C./5% CO2 in medium containing DMEM with Glutamax™, 1 mM sodium pyruvate, penicillin/streptomycin (PS) and 10% fetal bovine serum (FBS) (Invitrogen/LifeTechnologies). […] The cells were incubated with WST-1 for 1 hour at 37° C./5% CO2, then the amount of formazan dye produced was quantified using a scanning spectrophotometer (ELISA plate reader). The absorbance was measured with a test wavelength at 450 nm and a reference wavelength at 630 nm. Then, the 630 nm background absorbance was subtracted from the 450 nm measurement. […]
2) The FpFpF trinucleotide was tested in comparison with dFdC for its ability to inhibit cell growth of tumor cells of different origin: pancreatic cancer (MIA PaCa-2, ASPC) cervical (HeLa, CaSki, C33A) and hepatic (Huh-7) cancers. […] At this time cell proliferation was quantified using the WST-1 assay as described above. […]

[2] = following intravenous administration; cited from earlier work
[3] = test system: HeLa cells; experiment: HeLa xenograft tumor growth delay in immunodeficient mice; assay type: in vivo; details: 10 mg/kg intraperitoneally every fourth day, four doses
Protocol: Objective: To compare the anti-tumor activities of FpFpF trinucleotide and dFdC in vivo in a xenograft model. HeLa cells and immunodeficient mice were used in this assay as described below.
Methods. Immunodeficient CAnN.Cg-Fox1^nu/Cr1 (BALB/c) mice (The Jackson Laboratories) are well suited for the xenotransplantation of human tumors. HeLa cells (5×10^6) were mixed 1:1 with matrigel in a final volume of 0.1 ml and then injected subcutaneously in the right flank of each mouse. Treatments were initiated at the time when the tumor volume reached approximately 200 mm^3. The drugs (FpFpF trinucleotide or dFdC) were administered intraperitoneally at 10 mg/kg every fourth day for a total of four doses. Tumor volumes were calculated with the ellipsoid volume formula (L×W×H×π/6) (Tomayko and Reynolds, 1989). Tumor volume values were transformed to a log scale. A two-way analysis of variance by time and treatment was used. The data are finally expressed as means and standard errors for each treatment group against time. A Weibull distribution was assumed to calculate mean times and standard errors for each treatment group. Tumor growth delay was defined as the difference in mean time between each treated group and the control group.

[4] = test system: MIA PaCa-2 cells; experiment: Proliferation of MIA PaCa-2 cells treated with drug pre-incubated with human serum; assay type: cell-based; details: MIA PaCa-2, serum pre-incubation 2 hours at 37° C., then 72 hours on cells
Protocol: (§1) Methods: The cells were seeded in 96-well plates one day before treatment at a density of 5000 cells/well in 100 μl/well of medium DMEM/Glutamax™/1 mM sodium pyruvate/PS/10%/FBS and cultured at 37° C./5% CO2. Separate serum dilutions of dFdC and FpFpF trinucleotide were prepared from 1 mM stock solutions to a final concentration of 20 μmol/L. The sera aliquots containing either drug were incubated at 37° C./5% CO2 for the indicated times before they were added to the cells to the indicated final concentrations. The cells were incubated for further 72 hours after which the cell proliferation was quantified using the WST-1 assay. Two controls were run in parallel: untreated cells and cells treated with dFdC or FpFpF trinucleotides that were not incubated with serum.

[5] = mice, normal tissues and subcutaneous sarcoma tissue; cited from earlier work
[6] = test system: Panc-1 cells; experiment: Inhibition of proliferation of Panc-1 cells; assay type: cell-based; details: Homo sapiens, read-out: ID50 (the source's name)
Protocol: Methods: The FpFpF trinucleotide was coupled to lipid as described in the Example 3 for the Palmitoyl-trinucleotide (5′-FpFpF-3′-Pal). Panc-1 cells were plated one day before treatment at a density of 5000 cells/well in a 96-well plate with 100 μl/well of medium RPMI/Glutamax™/1 mM sodium pyruvate/PS/10% FBS and cultured at 37° C./5% CO2. Treatments (6 wells per condition) with wither dFdC, FpFpF and FpFpF-Pal were carried out at the indicated concentrations.

[7] = test system: HeLa cells; experiment: Proliferation of HeLa cells treated with drug pre-incubated with human serum; assay type: cell-based; details: serum pre-incubation 2 hours at 37° C., then 72 hours on cells
Protocol: as §1

[8] = in vivo; cited from earlier work

IC50 [6] [µM]	Molecule	inhibition of cell proliferation [1] [%]	half-life in the human plasma [2] [min]	Tumor Growth Delay at 500 mm^3, Mean ± S.E.M. ([3]; tumor size 500 mm^3) [days]	Tumor Growth Delay at 700 mm^3, Mean ± S.E.M. ([3]; tumor size 700 mm^3) [days]	Tumor Growth Delay at 900 mm^3, Mean ± S.E.M. ([3]; tumor size 900 mm^3) [days]	inhibition of proliferation after pre-incubation of drug with human serum [4] [%]	time radiolabeled dFdC remains in tissues [5]	inhibition of proliferation after pre-incubation of drug with human serum [7] [%]	excreted unprocessed in the urine [8]
–	2′-deoxy-2′,2′-difluorocytidinyl 3′-5′ phosphate 2′-deoxy-2′,2′-difluorocytidine [FpF]	~56	–	–	–	–	–	–	–	–
12.2	Nc1ccn([C@@H]2O[C@H](CO)[C@@H](O)C2(F)F)c(=O)n1 [dFdC, 2′.2′-difluoro 2′-deoxycytidine]	–	8 to 17	2.8 ± 0.3	4.9 ± 0.6	7.7 ± 0.5	10	up to 3 hours	5	less than 10%
–	thymidinyl 3′-5′ phosphate 2′-deoxy-2′,2′-difluorocytidine [TpF]	19	–	–	–	–	–	–	–	–
